Our source for the inhibition and Activity values is ChEMBL document CHEMBL6103644, “Efficient and Selective Biosynthesis of a Precursor-Directed FK506 Analogue: Paving the Way for Click Chemistry” (J Nat Prod, 2025).

In series [1] the test system is CD4+ T cell. Kind of series: Immunosuppressive activity in C57BL/6 mouse CD4+ T cells co-cultured with allogeneic bone marrow-derived BALB/c mouse dendritic cells assessed as inhibition of CD4+ T cell proliferation at 1 nM incubated for 4 days by CellTrace Violet staining based flow cytometry. To be noted: time 4.0 day. It is filed as functional.
The nature of series [2]: Cytotoxicity against C57BL/6 mouse CD4+ T cells assessed as increase in cell death at 0.5 to 100 nM incubated for 4 days by Live/Dead staining based flow cytometry. It is filed as toxicity. Conditions: 96 h, 0.1 µM, dose 0.5-100 nM, time 4 day.
The nature of series [3]: Cytotoxicity against C57BL/6 mouse CD4+ T cells assessed as increase in cell death at 5 nM incubated for 4 days by Live/Dead staining based flow cytometry. To be noted: 96 h, 0.005 µM, time 4 day. The class given is toxicity. (Flow cytometry measures light scatter and fluorescence of single cells or particles in a stream.)
A short description of series [4]: Cytotoxicity against C57BL/6 mouse CD4+ T cells assessed as increase in cell death at >10 nM incubated for 4 days by Live/Dead staining based flow cytometry. To be noted: 96 h, 0.01 µM, time 4 day. It is filed as toxicity.
The subject of series [5] is CD4+ T cell. Kind of series: Immunosuppressive activity in C57BL/6 mouse CD4+ T cells co-cultured with allogeneic bone marrow-derived BALB/c mouse dendritic cells assessed as reduction in CD4+ T cell numbers at cell cycle 4 at 5 nM incubated for 4 days by CellTrace Violet staining based flow cytometry. Conditions: time 4.0 day. It is filed as functional.

Activity calls are given as the source filed them. The calls are words filed in the database; no cut-off is given here.

`C=CC[C@@H]1/C=C(\C)C[C@H](C)C[C@H](OC)[C@H]2O[C@@](O)(C(=O)C(=O)N3CCCC[C@H]3C(=O)O[C@H](/C(C)=C/[C@@H]3CC[C@@H](O)[C@H](OC)C3)[C@H](C)[C@@H](O)CC1=O)[C@H](C)C[C@@H]2OC` [TACROLIMUS ANHYDROUS]: in the series on CD4+ T cell [1], the inhibition result was “Active”. Besides, the Activity result in series [2] was “Toxic”.

Regarding `C#CC[C@@H]1/C=C(\C)C[C@H](C)C[C@H](OC)[C@H]2O[C@@](O)(C(=O)C(=O)N3CCCC[C@H]3C(=O)O[C@H](/C(C)=C/[C@@H]3CC[C@@H](O)[C@H](OC)C3)[C@H](C)[C@@H](O)CC1=O)[C@H](C)C[C@@H]2OC`, the Activity result in series [3] is “Non-toxic”; in series [4] it was “Toxic”. In the series on CD4+ T cell [5], the result was Active.
